Results taken from US20260263529A1, “BIOENGINEERED COLON-SPECIFIC IMUNE NICHE FOR THE TREATMENT OF ULCERATIVE COLITIS” (THE BOARD OF REGENTS OF THE UNIVERSITY OF TEXAS SYSTEM, priority 2023, published 2026).

Columns and labels:
[1] = test system: B16OVA tumor-bearing mice; assay: Copanlisib-triggered colitis in B16OVA tumor model; type: in vivo, C57BL/6 mice; conditions: copanlisib 25 mg/kg i.p.
Experimental: B16F10, B16OVA, and MC38 xenograft tumors were inoculated into healthy C57BL/6 mice (female, 7 to 8 weeks old) through s.c. inoculation of B16F10 cells (2.5×10^5 cells/mouse) in serum-free DMEM, B16OVA cells (2.5×10^5 cells/mouse) in serum-free RPMI 1640 culture medium, and MC38 cells (5×10^5 cells/mouse) in serum-free DMEM in the right flank. Tumor volume (volume=0.5×a×b^2, where a is the large diameter and b is the small diameter) was measured every 2 to 3 days from day 7 after the tumor was inoculated.
For the COP-triggered colitis study in the B16OVA tumor model, COP treatment was provided by i.p. administration of COP (25 mg/kg, in saline) at days 6, 8, 10, 12, 14, 16 and 18 after tumor inoculation. Colitis was induced by feeding the tumor-bearing mice 3% DSS at day 14 for 4 days. For the colitis treatment group, mice received a single s.c. treatment with COMBO COIN at day 18. Bodyweight and DAI scores were monitored every 2 or 3 days. Mice were euthanized at 22 days post-inoculation. Colons were preserved by trained veterinary technicians at the UTSW ARC Diagnostic Laboratory without prior knowledge of the treatment. The lengths of preserved colons were measured and fixed with 10% NBF for 24 h. Fixed specimens were kept in 70% ethanol and transferred to the UTSW Histo Pathology Core for histological study (H&E, Ki67 and TUNEL stains).

[2] = Aqueous electrophoresis (zeta potential); type: physicochemical; conditions: dispersed in 1X PBS, diluted 100 times with deionized water, pH 6.8-8.0, 25° C.
Experimental: Sphere-equivalent intensity-average diameters (Dh) and zeta potentials of all NF samples were measured in a Malvern Zetasizer Pro instrument.

COc1c(OCCCN2CCOCC2)ccc2c1N=C(NC(=O)c1cnc(N)nc1)N1CCN=C21 [Copanlisib, copanlisib]
B16OVA tumor growth [1]: effectively inhibited B16OVA tumor growth
colitis symptoms induced by cancer treatment [1]: induced mild colitis symptoms

ACESPLKRQCGGG [TGF-β1 mimetic peptide]
Average zeta potential [2]: +22.1 ± 3.1 mV
